Assay results from ChEMBL document CHEMBL1147164, “Synthesis, stereochemistry and antimicrobial evaluation of some N-morpholinoacetyl-2,6-diarylpiperidin-4-ones” (2007).
Converted amounts (≈) assume the structure as drawn. The source made the active and inactive calls. No cut-off for these calls is given here.

Key:
Pseudomonas aeruginosa = assay: Antibacterial activity against Pseudomonas aeruginosa after 24 hrs by twofold serial dilution method; type: functional
Aspergillus niger = assay: Antifungal activity against Aspergillus niger after 72 to 96 hrs by twofold serial dilution method; type: functional
Staphylococcus aureus = assay: Antibacterial activity against Staphylococcus aureus after 24 hrs by twofold serial dilution method; type: functional
Candida albicans [1] = assay: Antifungal activity against Candida albicans at 200 ug/ml after 72 to 96 hrs by twofold serial dilution method; type: functional, organism-based
Salmonella typhi [2] = assay: Antibacterial activity against Salmonella typhi at 200 ug/ml after 24 hrs by twofold serial dilution method; type: functional, organism-based; settings: Salmonella enterica subsp. enterica serovar Typhi
Aspergillus flavus [3] = assay: Antifungal activity against Aspergillus flavus after 72 to 96 hrs by twofold serial dilution method; type: functional
Escherichia coli [4] = assay: Antibacterial activity against Escherichia coli after 24 hrs by twofold serial dilution method; type: functional
Rhizopus = assay: Antifungal activity against Rhizopus sp. after 72 to 96 hrs by twofold serial dilution method; type: functional
Candida albicans [5] = assay: Antifungal activity against Candida albicans after 72 to 96 hrs by twofold serial dilution method; type: functional
Salmonella typhi [6] = assay: Antibacterial activity against Salmonella typhi after 24 hrs by twofold serial dilution method; type: functional, Salmonella enterica subsp. enterica serovar Typhi; settings: Salmonella enterica
Escherichia coli [7] = assay: Antibacterial activity against Escherichia coli at 200 ug/ml after 24 hrs by twofold serial dilution method; type: functional, organism-based
Aspergillus flavus [8] = assay: Antifungal activity against Aspergillus flavus at 200 ug/ml after 72 to 96 hrs by twofold serial dilution method; type: functional, organism-based

Row | SMILES | MIC (Pseudomonas aeruginosa) | MIC (Aspergillus niger) | MIC (Staphylococcus aureus) | Activity (Candida albicans [1]) | Activity (Salmonella typhi [2]) | MIC (Aspergillus flavus [3]) | MIC (Escherichia coli [4]) | MIC (Rhizopus) | MIC (Candida albicans [5]) | MIC (Salmonella typhi [6]) | Activity (Escherichia coli [7]) | Activity (Aspergillus flavus [8])
1 | CC1C(=O)CC(c2ccccc2)N(C(=O)CN2CCOCC2)C1c1ccccc1 (stereo not drawn) | 50 µg/mL (≈ 127 µM) | 50 µg/mL (≈ 127 µM) | 200 µg/mL (≈ 510 µM) | inactive | inactive | 50 µg/mL (≈ 127 µM) | 100 µg/mL (≈ 255 µM) | 100 µg/mL (≈ 255 µM) |  |  |  | 
2 | Cc1ccc(C2C(C)C(=O)C(C)C(c3ccc(C)cc3)N2C(=O)CN2CCOCC2)cc1 (stereo not drawn) | 6.25 µg/mL (≈ 14.4 µM) | 50 µg/mL (≈ 115 µM) | 50 µg/mL (≈ 115 µM) |  |  | 25 µg/mL (≈ 57.5 µM) | 25 µg/mL (≈ 57.5 µM) | 25 µg/mL (≈ 57.5 µM) | 50 µg/mL (≈ 115 µM) | 6.25 µg/mL (≈ 14.4 µM) |  | 
3 | O=C1CC(c2ccccc2)N(C(=O)CN2CCOCC2)C(c2ccccc2)C1 (stereo not drawn) | 100 µg/mL (≈ 264 µM) | 200 µg/mL (≈ 528 µM) | 200 µg/mL (≈ 528 µM) | inactive |  |  |  | 100 µg/mL (≈ 264 µM) |  | 100 µg/mL (≈ 264 µM) | inactive | inactive
4 | O=C(O)c1cn(C2CC2)c2cc(N3CCNCC3)c(F)cc2c1=O [CIPROFLOXACIN] |  |  |  |  |  |  | 25 µg/mL (≈ 75.4 µM) |  |  | 50 µg/mL (≈ 151 µM) |  | 
5 | CCC1C(=O)CC(c2ccccc2)N(C(=O)CN2CCOCC2)C1c1ccccc1 (stereo not drawn) | 25 µg/mL (≈ 61.5 µM) | 100 µg/mL (≈ 246 µM) | 50 µg/mL (≈ 123 µM) |  |  | 100 µg/mL (≈ 246 µM) | 50 µg/mL (≈ 123 µM) | 200 µg/mL (≈ 492 µM) | 100 µg/mL (≈ 246 µM) | 100 µg/mL (≈ 246 µM) |  | 
6 | C[C@@H]1[C@H](O)[C@@H](C)/C=C/C=C/C=C/C=C/C=C/C=C/C=C/[C@H](O[C@@H]2O[C@H](C)[C@@H](O)[C@H](N)[C@@H]2O)C[C@@H]2O[C@](O)(C[C@@H](O)C[C@@H](O)[C@H](O)CC[C@@H](O)C[C@@H](O)CC(=O)O[C@H]1C)C[C@H](O)[C@H]2C(=O)O [AMPHOTERICIN B] |  | 50 µg/mL (≈ 54.1 µM) |  |  |  | 50 µg/mL (≈ 54.1 µM) |  | 25 µg/mL (≈ 27.1 µM) | 25 µg/mL (≈ 27.1 µM) |  |  | 
7 | CC1C(=O)C(C)C(c2ccccc2)N(C(=O)CN2CCOCC2)C1c1ccccc1 (stereo not drawn) | 25 µg/mL (≈ 61.5 µM) | 25 µg/mL (≈ 61.5 µM) | 50 µg/mL (≈ 123 µM) |  |  | 50 µg/mL (≈ 123 µM) | 100 µg/mL (≈ 246 µM) | 12.5 µg/mL (≈ 30.7 µM) | 50 µg/mL (≈ 123 µM) | 50 µg/mL (≈ 123 µM) |  | 
8 | COc1ccc(C2C(C)C(=O)C(C)C(c3ccc(OC)cc3)N2C(=O)CN2CCOCC2)cc1 (stereo not drawn) | 12.5 µg/mL (≈ 26.8 µM) | 50 µg/mL (≈ 107 µM) | 6.25 µg/mL (≈ 13.4 µM) |  |  | 100 µg/mL (≈ 214 µM) | 12.5 µg/mL (≈ 26.8 µM) | 50 µg/mL (≈ 107 µM) | 100 µg/mL (≈ 214 µM) | 25 µg/mL (≈ 53.6 µM) |  | 
9 | CC(C)C1C(=O)CC(c2ccccc2)N(C(=O)CN2CCOCC2)C1c1ccccc1 (stereo not drawn) | 50 µg/mL (≈ 119 µM) | 50 µg/mL (≈ 119 µM) | 100 µg/mL (≈ 238 µM) |  |  | 100 µg/mL (≈ 238 µM) | 100 µg/mL (≈ 238 µM) | 25 µg/mL (≈ 59.4 µM) | 50 µg/mL (≈ 119 µM) | 200 µg/mL (≈ 476 µM) |  | 
10 | CC1C(=O)C(C)C(c2ccc(Cl)cc2)N(C(=O)CN2CCOCC2)C1c1ccc(Cl)cc1 (stereo not drawn) | 50 µg/mL (≈ 105 µM) | 25 µg/mL (≈ 52.6 µM) | 25 µg/mL (≈ 52.6 µM) |  |  | 6.25 µg/mL (≈ 13.1 µM) | 25 µg/mL (≈ 52.6 µM) | 25 µg/mL (≈ 52.6 µM) | 6.25 µg/mL (≈ 13.1 µM) | 100 µg/mL (≈ 210 µM) |  | 
11 | COc1ccc(C2CC(=O)C(C)C(c3ccc(OC)cc3)N2C(=O)CN2CCOCC2)cc1 (stereo not drawn) | 25 µg/mL (≈ 55.2 µM) | 50 µg/mL (≈ 110 µM) | 50 µg/mL (≈ 110 µM) |  |  | 12.5 µg/mL (≈ 27.6 µM) | 100 µg/mL (≈ 221 µM) | 6.25 µg/mL (≈ 13.8 µM) | 25 µg/mL (≈ 55.2 µM) | 50 µg/mL (≈ 110 µM) |  | 
